Values after ≈ are worked out from the molar mass of the structure shown. Like-named read-outs stand apart in the source and are kept apart here.
Tests used:
6xHis-CaTps1 [1] = target: T1, 6xHis-CaTps1 (Candida albicans, UniProt Q92410); assay: UDP Transcreener FP assay, primary screen of the 3PP library; assay type: biochemical; conditions: for inhibition at 500 µM: read-out: CaTps1 FP (% inhibition)
T1 construct: Briefly, the full-length; thrombin cleavage site (pET-28a linker) (N); made in house; host or cells: E. coli BL21(DE3)pLysS
T1 sequence (Q92410 1-478): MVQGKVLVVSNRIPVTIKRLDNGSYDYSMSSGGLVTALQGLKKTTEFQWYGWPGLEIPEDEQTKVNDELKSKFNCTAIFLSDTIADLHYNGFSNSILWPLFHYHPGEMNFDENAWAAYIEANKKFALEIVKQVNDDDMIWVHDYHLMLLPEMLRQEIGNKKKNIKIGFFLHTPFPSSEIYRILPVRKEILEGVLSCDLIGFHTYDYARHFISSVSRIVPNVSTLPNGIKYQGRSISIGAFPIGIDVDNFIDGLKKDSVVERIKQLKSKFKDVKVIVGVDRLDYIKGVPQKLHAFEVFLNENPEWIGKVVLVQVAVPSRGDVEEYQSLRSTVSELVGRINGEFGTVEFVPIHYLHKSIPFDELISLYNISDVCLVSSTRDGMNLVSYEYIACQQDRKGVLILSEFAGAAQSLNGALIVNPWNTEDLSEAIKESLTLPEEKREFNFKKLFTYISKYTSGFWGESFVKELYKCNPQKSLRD
Description: As the first step of the trehalose biosynthesis pathway, Tps1 synthesizes T6P from the substrates UDP-glucose and G6P, followed by the release of UDP and T6P ([16]). To identify a small molecule inhibitor of Tps1 activity, we adapted an HTS utilizing the UDP Transcreener FP assay ([33], [34]). The FP assay detects the UDP released as a result of the Tps1-mediated enzymatic reaction (Fig. 1A). The FP assay Z’ factor, which describes the suitability of an assay for an HTS, is 0.87, indicating an ideal signal-to-noise ratio (Fig. S1A) ([35]). There was a greater than 175 millipolarization (mP) shift between the positive control novobiocin, an inhibitor with activity against a bacterial trehalose-P-synthase, and the negative control dimethyl sulfoxide (DMSO) (Fig. S1A) ([36]). Recombinant Tps1 from C. albicans, hereafter referred to as CaTps1, was expressed in E. coli and purified via an N-terminal 6xHis-tag and Ni^2-NTA affinity chromatography, followed by size exclusion chromatography (Fig. 1B). A 3-point pharmacophore (3PP) library, which consisted of a subset of 750 compounds of less than 300 Da in molecular mass from the St. Jude Children’s Research Hospital chemical library, was screened for the ability to inhibit 6xHis-CaTps1 activity ([37]). In the primary screen, 32 (4.3 %) compounds that inhibited the activity of 6xHis-CaTps1 by more than 10% at 500 µM concentration were identified (Fig. 1C and D). A 10% cutoff provided a significant number of hits to validate using a dose response assay (Fig. S1B). At the completion of the screen, seven compounds that inhibit the activity of CaTps1 in a dose-dependent manner were selected for further investigation (Fig. 1E; Table 1).
The glycosyltransferase activity of 6xHis-CaTps1, which results in the release of UDP, was measured using the UDP Transcreener FP assay (BellBrook Labs #3018, Madison, WI). The St. Jude Children’s Hospital (Memphis, TN) 3PP library was screened ([37]). Assays were performed at 37°C for 60 minutes in a 384-well plate using 5 µM 6xHis-CaTps1 in assay buffer containing 50 mM Tris-HCl pH 7.5, 300 mM NaCl, 10 mM MgCl2, and 1 mM dithiothreitol (DTT). Fluorescence polarization was detected using a BMG Labtech plate reader. Each assay plate contained the following additional control wells: (i) no antibody control, (ii) DMSO vehicle control, (iii) novobiocin positive control, and (iv) novobiocin dose-response. Screens were performed by the addition of single-point additions of test molecules to the above assay. The Z’ factor was calculated according to guidelines by Zhang et al., with a Z-factor of 0.5 and 1.0 indicating an excellent assay ([35]).

C. neoformans [2] = tested on: C. neoformans; set-up: method as in PMID 27248439; conditions: ref [12]; cited from earlier work
[3] = set-up: method as in PMID 27248439; conditions: ref [12]; cited from earlier work
Cryptococcus gattii = tested on: Cryptococcus gattii; set-up: method as in PMID 27248439; conditions: ref [12]; cited from earlier work
6xHis-CaTps1 [4] = target: T1, 6xHis-CaTps1; assay: Spectrophotometric-coupled Tps1 enzyme activity assay; assay type: biochemical, C. albicans; conditions: compounds diluted in DMSO, normalized to the DMSO control
Procedure: Fig 2 4456dh binds Tps1 and inhibits Tps1 activity. (A) Structure of 4456dh. (B and C) Glo-melt thermal shift assays reveal 4456dh destabilizes 6xHis-CaTps1 (B) and 6xHis-CnTps1 (C). The first derivative of the raw data was used to determine the melting temperature of 1 µM 6xHis-CaTps1 (B) and 1 µM 6xHis-CnTps1 (C) treated without (black) or with 2 mM 4456dh (red). […] The resulting dose-response curves were fitted to a one-site binding model to extract Kd values; the SD was calculated using the Kd values from each independent experiment (n = 3). (F) Tps1 enzyme activity assay with 5 µM 6xHis-CaTps1 (F) and 6xHis-CnTps1 (G) ±1 mM 4456dh. Error bars represent SE. […]
The ability of 4456dh to inhibit the activity of CaTps1 was tested using a spectrophotometric-coupled Tps1 enzyme assay, in which recombinant 6xHis-CaTps1 was incubated with 1 mM 4456dh at 4°C for 16 hours. […] Similarly, the effect of 1 mM 4456dh on 6xHis-CnTps1 activity was determined. […]
82 determined by SDS-PAGE analysis, were pooled and concentrated to 1 mg/mL for downstream […]
93 The data were acquired with MO.Control 1.5.3 (NanoTemper Technologies GmbH). Recorded
94 data were analyzed with MO.Affinity Analysis 2.2.7 (NanoTemper Technologies GmbH). […]
100 2X Glo-melt dye. Thermal denaturation was measured using an RT-PCR thermocycler (BioRad) […]
102 determined by identifying the inflection point of the derivative data. […]

C. albicans = conditions: Supplemental Table 5, cited from earlier work
C. neoformans [5] = tested on: C. neoformans; set-up: method as in earlier work; conditions: Supplemental Table 5; ref (13); cited from earlier work
[6] = primary screen, 500 µM compound, 5 µM 6xHis-CaTps1, 37°C 60 minutes

CN(C)C(C#N)c1c(F)cccc1Cl (centres unmarked) [SJ000866107-1]
inhibition at 500 µM (6xHis-CaTps1 [1]): 18.2%

Cc1cc(C(C#N)c2ccc(Cl)cc2)c(Cl)cc1NC(=O)c1cc(I)cc(I)c1O (centres unmarked) [Closantel]
activity in vitro (C. neoformans [2]): potent activity
antifungal activity in murine models [3]: does not have antifungal activity
activity in vitro (Cryptococcus gattii): potent activity

N#CCC(=O)c1ccco1 [SJ000805629-1]
inhibition at 500 µM (6xHis-CaTps1 [1]; [6]): 32.2%

Nc1nc(-c2ccoc2)cs1 [SJ000866675-1, [4-furan-3-yl]thiazol-2-amine]
inhibition at 500 µM (6xHis-CaTps1 [1]; [6]): 13.7%

CC(Cc1ccoc1)NS(C)(=O)=O (centres unmarked) [SJ000866077-1]
inhibition at 500 µM (6xHis-CaTps1 [1]; [6]): 11.1%

Cn1cc(-c2csc(NC(=O)Cc3ccccn3)n2)cn1 [Compound 4456]
effect of SJ6675 derivatives on CaTps1 activity (6xHis-CaTps1 [4]): significantly inhibited the activity of CaTps1

CN(C)C(C#N)c1ccccc1Cl (centres unmarked) [SJ000866063-1]
inhibition at 500 µM (6xHis-CaTps1 [1]): 19%

CC[C@H](C)C[C@H](C)CCCCCCCCC(=O)N[C@H]1C[C@@H](O)[C@@H](NCCN)NC(=O)[C@@H]2[C@@H](O)CCN2C(=O)[C@H]([C@H](O)CCN)NC(=O)[C@H]([C@H](O)[C@@H](O)c2ccc(O)cc2)NC(=O)[C@@H]2C[C@@H](O)CN2C(=O)[C@H]([C@@H](C)O)NC1=O [Caspofungin]
MIC80 (C. albicans; ref (12)): 1 µg/mL (≈ 0.915 µM)

Nc1[nH]c(=O)ncc1F [Flucytosine]
MIC80 (C. neoformans [5]): 8 µg/mL (≈ 62 µM)

CN1CCc2c(sc(N)c2C#N)C1 [SJ000866390-1]
inhibition at 500 µM (6xHis-CaTps1 [1]; [6]): 36.4%

C[C@@H](c1ncncc1F)[C@](O)(Cn1cncn1)c1ccc(F)cc1F [Voriconazole]
MIC80 (C. albicans; ref (11)): 0.06 µg/mL (≈ 0.172 µM)

CO[C@@H]1[C@@H](OC(N)=O)[C@@H](O)[C@H](Oc2ccc3c(O)c(NC(=O)c4ccc(O)c(CC=C(C)C)c4)c(=O)oc3c2C)OC1(C)C [novobiocin, reference compound]
millipolarization (mP) shift between positive control and DMSO (6xHis-CaTps1 [1]; positive control versus negative control DMSO): greater than 175 mP

C[C@@H]1[C@H](O)[C@@H](C)/C=C/C=C/C=C/C=C/C=C/C=C/C=C/[C@H](O[C@@H]2O[C@H](C)[C@@H](O)[C@H](N)[C@@H]2O)C[C@@H]2O[C@](O)(C[C@@H](O)C[C@@H](O)[C@H](O)CC[C@@H](O)C[C@@H](O)CC(=O)O[C@H]1C)C[C@H](O)[C@H]2C(=O)O [Amphotericin B]
MIC80 (C. neoformans [5]): 2 µg/mL (≈ 2.16 µM)

OC(Cn1cncn1)(Cn1cncn1)c1ccc(F)cc1F [Fluconazole]
MIC80 (C. albicans; ref (11)): 1.84 µg/mL (≈ 6.01 µM)

O=C(C1CC1)N1CCCNCC1 [SJ000866536-1]
inhibition at 500 µM (6xHis-CaTps1 [1]; [6]): 18.6%
